Experiments:
hROMK (human Kir1.1) = hROMK (human Kir1.1) (Homo sapiens (Human), UniProt P48048); assay: cell-based; details: CHO T-Rex hROMK stable cell line; thallium flux; 10-point concentration response curve; read-out: Human ROMK Th Flux IC50
Protocol: Solutions and reagents: Thallium flux assay was performed using FluxOR kit (F10017, Life Technologies). Loading buffer, assay buffer and stimulus buffer were prepared using kit components. HBSS (Hank's balanced salt solution, Cat#14025-092) was purchased separately from Life Technologies.
To prepare 10 ml of loading buffer: 10 μl of FluxOR dye (reconstituted in DMSO) was first added to 100 μl of powerload concentrate and this mix along with 100 μl of Probenicid (100×) was then added to 9.79 ml of HBSS. Assay buffer (10 ml) was prepared by addition of 2 ml of FluxOR chloride free buffer (5×), 100 μl of Probenicid (100×), and 0.2 ml of Ouabain (13.77 mM) to 7.7 ml of deionized water. Stimulus buffer was composed of 15 mM Tl2SO4, 0.75 mM K2SO4 in FluxOR chloride free buffer (diluted to 1× using deionized water). The final concentration of Tl2SO4 and K2SO4 in the assay plate was 3 mM and 0.15 mM, respectively.
Plating and induction of cells: The CHO T-Rex hROMK (human Kir1.1) stable cell line was maintained in Ham's F12 media supplemented with 10% FBS, 1% Penicillin-Streptomycin, 500 μg/ml Zeocin and 10 μg/ml Blasticidin at 37° C. in a 5% CO2 incubator. One day before the experiment, the cells were dissociated by incubation with Versene solution (15040-066, Life Technologies) for 10 minutes at 37° C. followed by addition of growth media. The cell suspension was centrifuged at 1200 rpm for 5 min. After discarding the supernatant, the cells were resuspended in fresh growth media and cell concentration was determined using a hemocytometer. Next, 0.5 μg/ml of Doxycycline was added to the cell suspension to induce hROMK channel expression and 50 μl (10,000 cells/well) of cell suspension was added to each well of a poly-D lysine coated 384 well black, optically clear bottom plate (6007718, Perkin Elmer). The assay plate was kept at 37° C. in a 5% CO2 incubator.
Assay protocol: On the day of experiment, media was removed and loading buffer was added (30 μl/well) to the assay plate. The cells were incubated in the loading buffer for 30 minutes at 37° C. The loading buffer was then replaced by assay buffer (30 μl/well) followed by addition of test compounds or controls. The cells were incubated with compounds for 30 minutes and the plate was then mounted on FlexStation (Molecular Devices) for fluorescence read out with excitation and emission wavelengths at 488 and 525 nm, respectively. Each well was read for 90 sec at 2 sec interval and the stimulus buffer was added after 20 seconds of baseline recording. The final DMSO concentration was either 0.5 or 1% in the assay plate. Positive and negative controls were defined by addition of DMSO or 3 μM of a standard ROMK inhibitor, respectively, to the wells instead of a test compound.
A 10-point concentration response curve was used to estimate the IC50 value of test compounds.

hERG channels = hERG channels (Homo sapiens (Human), UniProt Q12809); assay: hERG Manual Patch Clamp Assay; format: cell-based; details: human, HEK 293 cells stably expressing hERG channels, pH 7.4, 1 uM, read-out: hERG EP % Inh @ 1 uM
hERG channels, sequence (Q12809 whole entry): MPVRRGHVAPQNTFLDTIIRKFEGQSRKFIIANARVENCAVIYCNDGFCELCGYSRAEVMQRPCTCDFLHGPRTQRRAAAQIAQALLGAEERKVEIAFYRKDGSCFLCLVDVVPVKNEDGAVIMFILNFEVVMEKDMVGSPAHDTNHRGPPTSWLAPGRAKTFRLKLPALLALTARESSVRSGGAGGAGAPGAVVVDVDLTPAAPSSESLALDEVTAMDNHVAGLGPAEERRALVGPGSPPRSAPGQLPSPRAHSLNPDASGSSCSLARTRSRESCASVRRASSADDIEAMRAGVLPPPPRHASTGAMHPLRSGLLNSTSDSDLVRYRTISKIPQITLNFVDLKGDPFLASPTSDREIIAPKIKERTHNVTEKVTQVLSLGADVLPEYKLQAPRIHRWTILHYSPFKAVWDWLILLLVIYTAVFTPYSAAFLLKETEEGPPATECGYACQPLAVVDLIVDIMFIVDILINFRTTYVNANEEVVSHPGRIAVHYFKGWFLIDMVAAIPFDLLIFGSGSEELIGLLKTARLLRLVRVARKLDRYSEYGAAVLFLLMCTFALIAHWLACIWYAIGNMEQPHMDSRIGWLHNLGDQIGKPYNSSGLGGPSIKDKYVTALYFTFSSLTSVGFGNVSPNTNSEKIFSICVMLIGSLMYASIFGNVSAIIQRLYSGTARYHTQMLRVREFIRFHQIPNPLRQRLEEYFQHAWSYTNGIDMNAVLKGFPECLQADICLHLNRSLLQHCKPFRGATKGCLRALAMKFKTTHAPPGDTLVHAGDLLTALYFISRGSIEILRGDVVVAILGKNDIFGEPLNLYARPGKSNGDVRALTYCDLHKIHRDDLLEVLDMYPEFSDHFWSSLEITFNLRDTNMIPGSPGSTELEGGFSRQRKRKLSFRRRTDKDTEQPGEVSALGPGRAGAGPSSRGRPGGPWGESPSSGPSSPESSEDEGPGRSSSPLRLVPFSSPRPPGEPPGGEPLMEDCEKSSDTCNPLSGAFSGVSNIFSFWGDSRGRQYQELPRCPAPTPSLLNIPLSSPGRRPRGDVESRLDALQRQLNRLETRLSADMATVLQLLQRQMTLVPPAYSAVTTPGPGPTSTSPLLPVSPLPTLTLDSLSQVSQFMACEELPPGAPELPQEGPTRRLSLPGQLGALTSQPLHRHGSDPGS

hROMK (human Kir1.1), sequence (P48048 whole entry): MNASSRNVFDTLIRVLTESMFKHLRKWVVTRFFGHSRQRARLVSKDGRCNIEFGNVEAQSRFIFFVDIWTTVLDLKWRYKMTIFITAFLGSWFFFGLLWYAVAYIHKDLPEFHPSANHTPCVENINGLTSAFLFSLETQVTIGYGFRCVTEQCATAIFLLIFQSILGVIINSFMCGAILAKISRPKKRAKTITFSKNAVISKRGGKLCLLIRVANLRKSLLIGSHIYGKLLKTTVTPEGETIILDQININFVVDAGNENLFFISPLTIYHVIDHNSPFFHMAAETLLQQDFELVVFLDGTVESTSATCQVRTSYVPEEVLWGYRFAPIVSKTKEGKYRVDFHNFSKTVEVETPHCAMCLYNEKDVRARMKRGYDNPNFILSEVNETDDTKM

Row | SMILES | IC50 (hROMK (human Kir1.1)) | inhibition at 1 µM (hERG channels)
1 | Cc1c([C@@H]2CN(Cc3ccc(-n4ccc(C#N)n4)nc3)CCN2)ccc2c1COC2=O [Example 136-I, (R)-1-(5-((3-(4-methyl-1-oxo-1,3-dihydroisobenzofuran-5-yl)piperazin-1-yl)methyl)pyridin-2-yl)-1H-pyrazole-3-carbonitrile] | 28 nM | 29%
2 | COc1cc(-c2ncc(CN3CCO[C@H](c4ccc5c(c4C)COC5=O)C3)s2)ncc1C#N [Example 32-I, (R)-4-methoxy-6-(5-((2-(4-methyl-1-oxo-1,3-dihydroisobenzofuran-5-yl)morpholino)methyl)thiazol-2-yl)nicotino-nitrile] | 24 nM | 6.2%
3 | Cc1c([C@@H]2CN(Cc3cnc(-n4cc(C#N)c(C5CC5)n4)nc3)CCN2)ccc2c1COC2=O [Example 218-I, (R)-3-cyclopropyl-1-(5-((3-(4-methyl-1-oxo-1,3-dihydroisobenzofuran-5-yl)piperazin-1-yl)methyl)pyrimidin-2-yl)-1H-pyrazole-4-carbonitrile] | 33 nM | 39%
4 | Cc1cc(N2CC(CN3CCN[C@H](c4ccc5c(c4C)COC5=O)C3)CC2=O)ncc1C#N (single isomer, unassigned) [Example 158-I] | 36 nM | 20%
5 | COc1nn(-c2ncc(CN3CCN[C@H](c4ccc5c(c4C)COC5=O)C3)cn2)cc1C#N [Example 227-I, (R)-3-methoxy-1-(5-((3-(4-methyl-1-oxo-1,3-dihydroisobenzofuran-5-yl)piperazin-1-yl)methyl)pyrimidin-2-yl)-1H-pyrazole-4-carbonitrile] | 28 nM | 18%
6 | Cc1ncn(-c2ncc(CN3CCN[C@H](c4ccc5c(c4C)COC5=O)C3)cn2)c1C(F)F [Example 150-I, (R)-5-(4-((2-(5-(difluoromethyl)-4-methyl-1H-imidazol-1-yl)pyrimidin-5-yl)methyl)piperazin-2-yl)-4-methylisobenzofuran-1(3H)-one] | 100 nM | 14%
7 | CCc1nn(-c2ccc(CN3CCN[C@H](c4ccc5c(c4C)COC5=O)C3)cn2)cc1C#N [Example 226-I, (R)-3-ethyl-1-(5-((3-(4-methyl-1-oxo-1,3-dihydroisobenzofuran-5-yl)piperazin-1-yl)methyl)pyridin-2-yl)-1H-pyrazole-4-carbonitrile] | 14 nM | 33%
8 | Cc1cc(N2CCOC2=O)cc(-n2cc(CN3C[C@@H](c4ccc5c(c4C)COC5=O)N[C@@H](C)C3)cn2)n1 [Example 251-I, 3-(2-methyl-6-(4-(((3S,5R)-3-methyl-5-(4-methyl-1-oxo-1,3-dihydroisobenzofuran-5-yl)piperazin-1-yl)methyl)-1H-pyrazol-1-yl)pyridin-4-yl)oxazolidin-2-one] | 61 nM | 7.6%
9 | Cc1cc(-n2nnc(CN3C[C@@H](c4ccc5c(c4C)COC5=O)N[C@@H](C)C3)n2)ccc1C#N [Example 265-I, 2-methyl-4-(5-(((3S,5R)-3-methyl-5-(4-methyl-1-oxo-1,3-dihydroisobenzofuran-5-yl)piperazin-1-yl)methyl)-2H-tetrazol-2-yl)benzonitrile] | 22 nM | 20%
10 | Cc1c([C@@H]2CN(Cc3cnn(-c4cccc(N5CCOC5=O)n4)c3)C[C@H](C)N2)ccc2c1COC2=O [Example 249-I, 3-(6-(4-(((3S,5R)-3-methyl-5-(4-methyl-1-oxo-1,3-dihydroisobenzofuran-5-yl)piperazin-1-yl)methyl)-1H-pyrazol-1-yl)pyridin-2-yl)oxazolidin-2-one] | 120 nM | 9.1%
11 | Cc1c([C@@H]2CN(Cc3cnn(-c4ccc5oc(=O)n(C)c5c4)c3)CCO2)ccc2c1COC2=O [Example 25-I, (R)-3-methyl-5-(4-((2-(4-methyl-1-oxo-1,3-dihydroisobenzofuran-5-yl)morpholino)methyl)-1H-pyrazol-1-yl) benzo[d]oxazol-2(3H)-one] | 51 nM | 8.7%
12 | COc1cc(-n2cnc(C)c2)ncc1CN1CCN[C@H](c2ccc3c(c2C)COC3=O)C1 [Example 149-I, (R)-5-(4-((4-methoxy-6-(4-methyl-1H-imidazol-1-yl)pyridin-3-yl)methyl)piperazin-2-yl)-4-methylisobenzofuran-1(3H)-one] | 52 nM | 7.6%
13 | Cc1c([C@@H]2CN(Cc3ccc(-n4cc(C#N)cn4)nc3)CCN2)ccc2c1COC2=O [Example 64-I, (R)-1-(5-((3-(4-methyl-1-oxo-1,3-dihydroiso-benzofuran-5-yl)piper-azin-1-yl)methyl)pyri-din-2-yl)-1H-pyrazole-4-carbonitrile] | 8.8 nM | 45%
14 | Cc1cc(-n2cnc(CN3C[C@@H](c4ccc5c(c4C)COC5=O)N[C@@H](C)C3)n2)ncc1C#N [Example 122-I, 4-methyl-6-(3-(((3S,5R)-3-methyl-5-(4-methyl-1-oxo-1,3-dihydroisobenzofuran-5-yl)piperazin-1-yl)methyl)-1H-1,2,4-triazol-1-yl)nicotinonitrile] | 50 nM | 6.6%
15 | Cc1cn(-c2ncc(CN3CCN[C@H](c4ccc5c(c4C)COC5=O)C3)cn2)nc1C#N [Example 243-I, (R)-4-methyl-1-(5-((3-(4-methyl-1-oxo-1,3-dihydroisobenzofuran-5-yl)piperazin-1-yl)methyl)pyrimidin-2-yl)-1H-pyrazole-3-carbonitrile] | 13 nM | 9.8%
16 | Cc1cc(-n2cnc(CN3CC[C@@H](O)[C@H](c4ccc5c(c4C)COC5=O)C3)c2)ncc1C#N [Example 163-I, 6-(4-(((3R,4R)-4-hydroxy-3-(4-methyl-1-oxo-1,3-dihydroisobenzofuran-5-yl)piperidin-1-yl)methyl)-1H-imidazol-1-yl)-4-methylnicotinonitrile] | 29 nM | 4.5%
17 | Cc1c([C@@H]2CN(Cc3cnn(-c4ccnc(C(F)(F)F)c4)c3)C[C@H](C)N2)ccc2c1COC2=O [Example 128-I, 4-methyl-5-((2R,6S)-6-methyl-4-((1-(2-(trifluoromethyl)pyridin-4-yl)-1H-pyrazol-4-yl)methyl)piperazin-2-yl)isobenzofuran-1(3H)-one] | 66 nM | 19%
18 | COC1CC(c2ccc3c(c2C)COC3=O)CN(Cc2cnn(-c3cc(C)c(C#N)cn3)c2)C1 (single isomer, unassigned) [Example 200-II, 6-(4-((3-methoxy-5-(4-methyl-1-oxo-1,3-dihydroisobenzofuran-5-yl)piperidin-1-yl)methyl)-1H-pyrazol-1-yl)-4-methylnicotinonitrile] | 64 nM | 27%
19 | Cc1cc(-n2ncc(CN3CCN[C@H](c4ccc5c(c4C)COC5=O)C3)c2C)ncc1C#N [Example 146-I, (R)-4-methyl-6-(5-methyl-4-((3-(4-methyl-1-oxo-1,3-dihydroisobenzofuran-5-yl)piperazin-1-yl)methyl)-1H-pyrazol-1-yl)nicotinonitrile] | 25 nM | 16%
20 | COc1cc(C#N)ccc1-n1cc(CN2CCO[C@H](c3ccc4c(c3C)COC4=O)C2)cn1 [Example 51-I, (R)-3-methoxy-4-(4-((2-(4-methyl-1-oxo-1,3-dihydroisobenzofuran-5-yl)morpholino)methyl)-1H-pyrazol-1-yl) benzonitrile] | 29 nM | 43%
21 | COc1cc(-c2ccc(CN3CCN[C@H](c4ccc5c(c4C)COC5=O)C3)c(OC)n2)ncc1C#N [Example 143-I, (R)-4,6′-dimethoxy-5′-((3-(4-methyl-1-oxo-1,3-dihydroisobenzofuran-5-yl)piperazin-1-yl)methyl)-[2,2′-bipyridine]-5-carbonitrile] | 63 nM | 49%
22 | Cc1cc(-n2cc(CN3CCN(C)[C@H](c4ccc5c(c4C)COC5=O)C3)cn2)ncc1C#N [Example 70-I, (R)-4-methyl-6-(4-((4-methyl-3-(4-methyl-1-oxo-1,3-dihydroisobenzo-furan-5-yl)piperazin-1-yl)methyl)-1H-pyra-zol-1-yl)nicotinonitrile] | 59 nM | 8.4%
23 | COc1cc(N2CC(CN3CCN[C@H](c4ccc5c(c4C)COC5=O)C3)CC2=O)ncc1C#N (stereo partly drawn) [Example 159-I, 4-methoxy-6-(4-(((R)-3-(4-methyl-1-oxo-1,3-dihydroisobenzofuran-5-yl)piperazin-1-yl)methyl)-2-oxopyrrolidin-1-yl)nicotinonitrile] | 16 nM | 21%
24 | Cc1c([C@@H]2CN(Cc3cnn(-c4ccc(C#N)cc4)c3)CCO2)ccc2c1COC2=O [Example 40-I, (R)-4-(4-((2-(4-methyl-1-oxo-1,3-dihydroiso-benzofuran-5-yl)morpho-lino)methyl)-1H-pyrazol-1-yl)benzonitrile] | 27 nM | 54%
25 | Cc1c([C@@H]2CN(Cc3cnn(-c4cc(C)c5oc(=O)n(C)c5c4)c3)CCN2)ccc2c1COC2=O [Example 57-I, (R)-3,7-dimethyl-5-(4-((3-(4-methyl-1-oxo-1,3-dihydroisobenzofuran-5-yl)piperazin-1-yl)methyl)-1H-pyrazol-1-yl)benzo[d]oxazol-2(3H)-one] | 59 nM | 26%
26 | COc1cc(-n2cc(CN3C[C@@H](c4ccc5c(c4C)COC5=O)N[C@@H](C)C3)n(C)c2=O)ccn1 [Example 275-I, 1-(2-methoxypyridin-4-yl)-3-methyl-4-(((3S,5R)-3-methyl-5-(4-methyl-1-oxo-1,3-dihydroisobenzofuran-5-yl)piperazin-1-yl)methyl)-1,3-dihydro-2H-imidazol-2-one] | 42 nM | 8.4%
27 | Cc1c([C@@H]2CN(Cc3cnc(-n4cc(C#N)c(C(F)F)n4)nc3)CCN2)ccc2c1COC2=O [Example 229-I, (R)-3-(difluoromethyl)-1-(5-((3-(4-methyl-1-oxo-1,3-dihydroisobenzofuran-5-yl)piperazin-1-yl)methyl)pyrimidin-2-yl)-1H-pyrazole-4-carbonitrile] | 21 nM | 25%

— US10501449B2 (priority 2018, dated 2019)
